Measurements taken from patent US20230012368A1 (Hoffmann-La Roche Inc., priority 2018, published 2023).
Structures can show the parent of a compound that is named as a salt.

These compounds were tested on Acinetobacter baumannii ATCC 17978 (assay: Antimicrobial susceptibility testing: 90% growth inhibitory concentration (IC90) determination). Details: Acinetobacter baumannii, ATCC17978, 16 h, 90% growth inhibitory concentration; Acinetobacter baumannii ATCC17978; Iso-Sensitest broth, OD 600 nm over 16h; read-out: ATCC17978 IC90.
Type: cell-based
In short: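 Growth of the Acinetobacter baumannii strain was followed by optical density at 600 nm every 20 minutes for 16h at 35±2° C. Inoculum was ~5×10^(5) CFU/ml in Iso-Sensitest medium, with twofold compound dilutions (e.g. 50 to 0.097 μM final). The 90% inhibitory concentration was derived in log-phase growth.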

| Compound | IC90 |
| --- | --- |
| COc1ccc(-c2cnc3c(Nc4ccc(C(=O)N(C)CC5OCC(N)CO5)c(C)c4)nccn23)cc1 (centres unmarked) [Example 153, N-((5-Amino-1,3-dioxan-2-yl)methyl)-4-((3-(4-methoxyphenyl)imidazo[1,2-a]pyrazin-8-yl)amino)-N,2-dimethylbenzamide] | 530 nM |
| COc1ccc(-c2cnc3c(Nc4ccc(C(=O)NCC(=O)N5CCC(O)CC5)c(C)c4)nccn23)cc1 [Example 20, N-(2-(4-hydroxypiperidin-1-yl)-2-oxoethyl)-4-((3-(4-methoxyphenyl)imidazo [1,2-a]pyrazin-8-yl)amino)-2-methylbenzamide] | 650 nM |
| CCc1cc(Nc2nccn3c(-c4ccc(Oc5nccs5)c(F)c4F)cnc23)ccc1C(=O)NCCCN [Example 482, #N!-(3-aminopropyl)-4-[[3-[2,3-difluoro-4-(1,3-thiazol-2-yloxy)phenyl]imidazo[1,2-a]pyrazin-8-yl]amino]-2-ethylbenzamide] | 880 nM |
| COc1ccc(-c2cnc3c(Nc4ccc(C(=O)NCCN5CCNC(=O)C5)c(C)c4)nccn23)cc1F [Example 216, 4-[[3-(3-fluoro-4-methoxyphenyl)imidazo[1,2-a]pyrazin-8-yl]amino]-2-methyl-N-[2-(3-oxopiperazin-1-yl)ethyl]benzamide] | 770 nM |
| Cc1cc(Nc2nccn3c(-c4ccc(OCC#CCN)cc4)cnc23)ccc1C(=O)N(C)CCC1CCN(C)CC1 [Example 319, 4-[[3-[4-(4-aminobut-2-ynoxy)phenyl]imidazo[1,2-a]pyrazin-8-yl]amino]-N,2-dimethyl-N-[2-(1-methylpiperidin-4-yl)ethyl]benzamide;formic acid] | 3300 nM |
| Cc1cc(Nc2nccn3c(-c4ccc(OC(F)F)cc4)cnc23)ccc1C(=O)NCCC1CCNCC1 [Example 196, 4-[[3-[4-(difluoromethoxy)phenyl]im-idazo[1,2-a]pyrazin-8-yl]amino]-2-methyl-N-(2-piperidin-4-ylethyl)benzamide;hydrochlo-ride] | 380 nM |
| CCc1cc(Nc2nccn3c(-c4ccc(OC)c(F)c4F)cnc23)ccc1C(=O)NCC(N)CC (centres unmarked) [Example 523, N-(2-aminobutyl)-4-((3-(2,3-difluoro-4-methoxyphenyl)imidazo[1,2-a]pyrazin-8-yl)amino)-2-ethylbenzamide hydrochloride] | 250 nM |
| COc1ccc(-c2cnc3c(Nc4ccc(C(=N)OCC(=N)N(C)C)c(C)c4)nccn23)cc1 [Example 16] | 810 nM |
| COc1ccc(-c2cnc3c(Nc4ccc(C(=O)NCCNC(=O)[C@@H]5C[C@@H](O)CN5)c(C)c4)nccn23)c(F)c1F [Example 363, (2S,4R)-N-[2-[[4-[[3-(2,3-difluoro-4-methoxyphenyl)imidazo[1,2-a]pyrazin-8-yl]amino]-2-methylbenzoyl]amino]ethyl]-4-hydroxypyrrolidine-2-carboxamide] | 90 nM |
| COc1ccc(-c2cnc3c(Nc4ccc(C(=O)N(C)CCC5CCNCC5)c(C)c4)nccn23)cc1F [Example 11, hydrochloride] | 140 nM |
| CCc1cc(Nc2nccn3c(-c4ccc(OC)c(F)c4F)cnc23)ccc1C(=O)NCCCCCCN [Example 494, N-(6-aminohexyl)-4-((3-(2,3-difluoro-4-methoxyphenyl)imidazo[1,2-a]pyrazin-8-yl)amino)-2-ethylbenzamide hydrochloride] | 37 nM |
| C/C=C/c1cc(Nc2nccn3c(-c4ccc(OC(F)F)cc4)cnc23)ccc1C(=O)NC [Example 151, (E)-4-((3-(4-(Difluoromethoxy)phenyl)imidazo[1,2-a]pyrazin-8-yl)amino)-N-methyl-2-(prop-1-en-1-yl)benzamide] | 2000 nM |
| COc1ccc(-c2cnc3c(Nc4ccc(C(=O)N(C)CCC(=O)N5CCNCC5)c(C)c4)nccn23)cc1F [Example 3, 4-[[3-(3-fluoro-4-methoxy-phenyl)imidazo[1,2-a]pyrazin-8-yl]amino]-N,2-dimethyl-N-(3-oxo-3-piperazin-1-yl-propyl)benzamide] | 210 nM |
| Cc1cc(Nc2nccn3c(-c4ccc(OC(F)F)cc4)cnc23)ccc1C(=O)NCCSc1nnnn1C [Example 176, 4-[[3-[4-(difluoromethoxy)phenyl]im-idazo[1,2-a]pyrazin-8-yl]amino]-2-methyl-N-[2-(1-methyltetrazol-5-yl)sulfanylethyl]benzamide] | 520 nM |
| COc1ccc(-c2cnc3c(Nc4ccc5c(c4)CCN(CCN(C)C)C5=O)nccn23)cc1F [Example 116, 2-[2-(dimethylamino)ethyl]-6-[[3-(3-fluoro-4-methoxy-phenyl)imidazo[1,2-a]pyrazin-8-yl]amino]-3,4-dihydroisoquinolin-1-one] | 940 nM |
| COc1ccc(-c2cnc3c(Nc4ccc(C(=O)NCC5CCN(C)CC5)c(C)c4)nccn23)c(F)c1F [Example 62, 4-((3-(2,3-difluoro-4-methoxyphenyl)imidazo [1,2-a]pyrazin-8-yl)amino)-2-methyl-N-((1-methylpiperidin-4-yl)methyl)benzamide] | 250 nM |
| COc1ccc(-c2cnc3c(Nc4ccc(C(=O)N(C)CCCN)cc4)nccn23)cc1 [Example 33, N-(3-aminopropyl)-4-((3-(4-methoxyphenyl)imidazo [1,2-a]pyrazin-8-yl)amino)-N-methylbenzamide hydrochloride] | 4900 nM |
| COc1ccc(-c2cnc3c(Nc4ccc(C(=O)N(C)CC(=O)N5CCNC(C(=O)O)C5)c(C)c4)nccn23)cc1F (centres unmarked) [Example 173, 4-[2-[[4-[[3-(3-fluoro-4-methoxyphenyl)imidazo[1,2-a]pyrazin-8-yl]amino]-2-methylbenzoyl]-methylamino]acetyl]piperazine-2-carboxylic acid;hydrochloride] | 8600 nM |
| COc1ccc(-c2cnc3c(Nc4ccc5c(c4)CCN(C)C5=O)nccn23)cc1F [Example 274, 6-[[3-(3-fluoro-4-methoxyphenyl)imidazo[1,2-a]pyrazin-8-yl]amino]-2-methyl-3,4-dihydroisoquinolin-1-one] | 240 nM |
| C#CCOc1ccc(-c2cnc3c(Nc4ccc(C(=O)N[C@H](C)CN)c(CC)c4)nccn23)c(F)c1F [Example 460, N-[(1R)-2-amino-1-methyl-ethyl]-4-[[3-(2,3-difluoro-4-prop-2-ynoxy-phenyl)imidazo[1,2-a]pyrazin-8-yl]amino]-2-ethyl-benzamide] | 480 nM |
| CCc1cc(Nc2nccn3c(-c4ccc(OC)c(F)c4F)cnc23)ccc1C(=O)NCCNC(=O)[C@@H](N)CCNC(=N)N [Example 131, N-[2-[[(2S)-2-amino-4-guanidino-butanoyl]amino]ethyl]-4-[[3-(2,3-difluoro-4-methoxy-phenyl)imidazo[1,2-a]pyrazin-8-yl]amino]-2-ethyl-benzamide formate] | 90 nM |
| CCc1cc(Nc2nccn3c(-c4ccc(Oc5ccccn5)c(F)c4F)cnc23)ccc1C(=O)NC [Example 472, 4-[[3-[2,3-difluoro-4-(2-pyridyloxy)phenyl]imidazo [1,2-a]pyrazin-8-yl]amino]-2-ethyl-N-methyl-benzamide] | 210 nM |
| CCc1cc(Nc2nccn3c(-c4ccc(OC)c(F)c4F)cnc23)ccc1C(=O)NC[C@@H]1CNC[C@@H]1O [Example 531, 4-((3-(2,3-difluoro-4-methoxyphenyl)imidazo[1,2-a]pyrazin-8-yl)amino)-2-ethyl-N-(((3S,4R)-4-hydroxypyrrolidin-3-yl)methyl)benzamide hydrochloride] | 150 nM |
